Data taken from article PMC5130005, “Indolin-2-one compounds targeting thioredoxin reductase as potential anticancer drug leads” (Oncotarget, 2016).

What was measured:
HCT 116 cells [1] = assay: total cellular thiols; assay type: cell-based, human; conditions: 20-50 μM
[2] = cell viability, MRC-5 normal lung fibroblasts; assay type: cell-based; conditions: MRC-5 human normal lung fibroblasts, read-out: LC50, MRC-5 cells
recombinant rat TrxR = target: T1, recombinant rat TrxR (Rattus norvegicus, UniProt O89049); assay: reversibility of TrxR inhibition (desalting, DTNB reduction assay); assay type: biochemical; conditions: 20 μM, 30 min, then desalting; activity followed 2 h post-desalting
T1 construct: made in house
T1 sequence (O89049 1-499): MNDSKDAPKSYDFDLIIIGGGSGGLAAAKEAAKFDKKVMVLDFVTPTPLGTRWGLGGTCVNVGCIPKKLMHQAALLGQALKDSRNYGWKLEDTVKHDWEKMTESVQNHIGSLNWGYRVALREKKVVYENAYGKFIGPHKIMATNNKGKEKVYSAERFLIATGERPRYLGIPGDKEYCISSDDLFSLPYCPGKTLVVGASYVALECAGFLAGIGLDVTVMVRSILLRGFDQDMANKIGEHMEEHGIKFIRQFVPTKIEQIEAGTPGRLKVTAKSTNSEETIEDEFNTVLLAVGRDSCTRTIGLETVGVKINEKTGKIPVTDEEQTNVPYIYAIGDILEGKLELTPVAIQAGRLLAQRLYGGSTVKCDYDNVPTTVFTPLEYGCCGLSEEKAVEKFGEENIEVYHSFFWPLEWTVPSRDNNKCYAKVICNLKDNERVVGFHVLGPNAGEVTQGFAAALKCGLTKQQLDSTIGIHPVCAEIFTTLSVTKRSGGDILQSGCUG

HCT 116 cells [3] = assay: apoptosis induction by Western blot of cleaved caspase 3 and PARP; assay type: cell-based, human; conditions: 10 h
Experimental: (§1) Cells were seeded onto 100 mm or 60 mm culture plates and upon reaching ~70% confluency, they were subjected to drug treatment for indicated durations. Pellets of compound-treated or DMSO control cells comprising both attached and floating cells were collected and lysed in lysis buffer (25 mM Tris-HCl pH 7.5, 100 mM NaCl, 2.5 mM EDTA, 2.5 mM EGTA, 20 mM NaF, 1 mM Na3VO4, 20 mM sodium β-glycerophosphate, 10 mM sodium pyrophosphate, 0.5% Triton X-100) with freshly added protease inhibitor cocktail (Roche Diagnostics). Prior to being used in Western blot analysis and/or cellular TrxR, GR, Trx and GPx activity determination, lysates were precleared by centrifugation and protein concentrations were determined using a modified Bradford assay (Bio-Rad Laboratories) as described in the manufacturer's manual. This procedure for collecting whole cell lysate was used for all experiments except for the Trx-redox state determination experiment. Equal amounts of protein (50 μg) in each lysate sample were separated by SDS-PAGE, followed by electroblotting onto nitrocellulose membranes. Electroblotted proteins on membranes were probed with a primary antibody and subsequently by a secondary antibody conjugated to HRP.

[4] = target: T2, TrxR in Keap1-null (Keap1−/−) MEFs (Mus musculus, UniProt Q9JMH6); assay: TrxR activity in Keap1-null MEF lysates; assay type: cell-based; conditions: 5 h treatment, 20 to 40 μM
T2 sequence (Q9JMH6 115-613 limits assumed): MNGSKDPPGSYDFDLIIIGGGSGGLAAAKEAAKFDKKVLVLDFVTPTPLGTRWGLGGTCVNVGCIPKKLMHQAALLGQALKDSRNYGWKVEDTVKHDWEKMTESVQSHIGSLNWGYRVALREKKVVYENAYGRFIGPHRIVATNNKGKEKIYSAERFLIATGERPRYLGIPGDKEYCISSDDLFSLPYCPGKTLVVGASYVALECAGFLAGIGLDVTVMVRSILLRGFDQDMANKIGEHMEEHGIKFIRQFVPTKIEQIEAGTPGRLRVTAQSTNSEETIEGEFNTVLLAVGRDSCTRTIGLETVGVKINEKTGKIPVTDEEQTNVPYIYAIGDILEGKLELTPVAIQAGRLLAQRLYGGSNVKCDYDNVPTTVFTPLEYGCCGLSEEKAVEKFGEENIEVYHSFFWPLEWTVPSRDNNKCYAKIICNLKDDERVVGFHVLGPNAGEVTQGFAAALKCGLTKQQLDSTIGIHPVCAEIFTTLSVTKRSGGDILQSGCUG
Experimental: as §1, with “Equal amounts of protein (50 μg) in each lysate sample were separated by SDS-PAGE, followed by electroblotting onto nitrocellulose membranes. Electroblotted proteins on membranes were probed with a primary antibody and subsequently by a secondary antibody conjugated to HRP.” left out
Freshly collected cell lysates were used for measurement of activity of cellular Trx and TrxR. […] The amount of free thiols generated from insulin reduction was determined by DTNB reduction at 412 nm using the VersaMax microplate reader. […] For each sample, Trx or TrxR activity was calculated as the absorbance at 412 nm subtracted from that of the corresponding control and expressed as a percentage of the activity measured in DMSO-treated cells.

[5] = test system: Trx-ASK1 complex in ASK1-overexpressing HCT 116 cells; assay: Trx-ASK1 interaction by Trx immunoprecipitation; assay type: cell-based, human
Experimental: HCT 116 cells were seeded in 60 mm plates and upon reaching 40% confluency, they were transfected with 1.5 μg of pCMV-SPORT6-ASK1 per plate. When the transfected cells reached ~70% confluency, they were treated with DMSO or compound 4 at indicated concentrations for 4 h and lysates were collected for immunoprecipitation set-up. For each lysate sample, a volume containing 1 mg of protein was mixed with 1.5 μg of anti-Trx antibody coupled to 20 μl of protein G-sepharose (GE Healthcare) and tumbled at 4°C for 2 h. The G-sepharose beads were washed three times in a cold washing buffer containing 20 mM Tris (pH 7.5), 0.5 M NaCl and 1 mM EGTA and once in a buffer containing 50 mM Tris (pH 7.5). The immunoprecipitated proteins were denatured in SDS sample buffer containing 5% β-mercaptoethanol and subjected to SDS-PAGE and Western blotting.

SMILES	total cellular thiols (HCT 116 cells [1])	CC50 at 72 h [2]	reversibility of TrxR inhibition (recombinant rat TrxR)	apoptosis induction (cleaved caspase 3 and PARP) (HCT 116 cells [3])	TrxR activity in Keap1−/− MEFs [4]	amount of ASK1 bound to Trx1 [5]
CC(=O)/C=C1/C(=O)N(Cc2ccccc2)c2ccccc21 [Compound 5]	depletion of total cellular thiols in a dose-dependent manner	22.7 ± 2.4 µM	irreversible inhibitors of TrxR	Dose-dependent induction of apoptosis	elevated TrxR activity	
CCCCN1C(=O)/C(=C/C(C)=O)c2ccccc21 [Compound 4]	depletion of total cellular thiols in a dose-dependent manner	25.5 ± 2.7 µM	irreversible inhibitors of TrxR	Dose-dependent induction of apoptosis	elevated TrxR activity	dose-dependent decrease
